Source: patent publication US20220249415A1, “COMPOSITION OF AZELAIC ACID HAVING ADIPOSE TRIGLYCERIDE HYDROLYSIS EFFECT” (Korea University Research and Business Foundation, priority 2018, published 2022)

How the values were obtained:
3T3-L1 adipocytes [1] = assay: Western blot of phosphorylation of CREB and HSL in 3T3-L1 adipocytes; assay type: cell-based, mouse; details: azelaic acid 50 μM, 2 hours, vs control
From the text: When the PKA protein activity is increased by azelaic acid, phosphorylation of target proteins of PKA is increased. Therefore, phosphorylation of cAMP-response element binding protein (CREB) and hormone-sensitive lipase (HSL) known as target proteins of PKA was confirmed by a western blot experiment. […] Primary antibodies used in the experiment were anti-phospho-CREB and anti-phospho-HSL antibodies (Santa Cruz, Calif., U.S.).

OR2K2 = target: T1, OR2K2 (Homo sapiens, UniProt Q8NGT1); assay: siRNA knock-down of OR2K2 in HepG2 cells, fatty acid oxidation-related gene expression; assay type: cell-based
T1 construct: endogenous in cells; host or cells: HepG2
T1 sequence (Q8NGT1 1-316): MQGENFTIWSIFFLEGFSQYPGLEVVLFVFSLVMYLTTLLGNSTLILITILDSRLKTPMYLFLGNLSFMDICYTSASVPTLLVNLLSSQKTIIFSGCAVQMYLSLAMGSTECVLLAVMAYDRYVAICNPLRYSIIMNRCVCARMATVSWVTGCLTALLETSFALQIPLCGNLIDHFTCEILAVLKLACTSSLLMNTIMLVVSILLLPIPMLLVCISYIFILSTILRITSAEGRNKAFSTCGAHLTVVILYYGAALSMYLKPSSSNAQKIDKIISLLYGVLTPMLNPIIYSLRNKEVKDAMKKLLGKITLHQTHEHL
From the text: The gene expression of OR1E1, OR1K1, OR2K2, OR2S2, OR13C5, and OR51E2, corresponding to the top 6 receptors among 10 human olfactory receptors selected to be expressed in both adipose tissue and liver tissue while interacting with azelaic acid, was knocked down with siRNA in human-derived liver cell and adipocyte lines, namely HepG2 cells and hAMSC cells, respectively. Here, siRNAs that were used were OR1E2 siRNA (sc-93932), OR1K2 (sc-92810), OR2K2 (sc-92852), OR2S2 (sc-92505), OR13C5 (sc-92899), and OR51E2 (sc-76265), purchased from Santa Cruz Biotechnology Inc. (Dallas, Tx USA).
After knock-down treatment, the cell lines were treated with azelaic acid, and triglyceride hydrolysis and fatty acid oxidation-related gene expression in HepG2 cells as a human-derived liver cell line and hAMSC cells as a human-derived adipocyte line were measured.

[2] = Dose evaluation experiment, oral administration, body weight control; assay type: in vivo; details: 6 mg/kg of azelaic acid, 6 weeks
Experimental: Azelaic acid was orally administered for 6 weeks, and the body weight control effects of three doses (6, 17, 20 mg/kg) were compared. The commercially available anti-obesity drugs Xenical and Panbesy were used as positive controls. […] Similar results were also obtained when a secondary experiment was performed to confirm the results.

3T3-L1 adipocytes [3] = assay: Glycerol release (triglyceride hydrolysis) from 3T3-L1 adipocytes; assay type: cell-based, mouse; details: 50 μM azelaic acid, 2 hours
Experimental: Further, in order to confirm whether or not azelaic acid has an effect of hydrolyzing triglycerides, a release amount of glycerol corresponding to a product of triglyceride hydrolysis was measured.

3T3-L1 adipocytes [4] = assay: IP-one assay (ELISA) in 3T3-L1 adipocytes; assay type: cell-based, mouse; details: 50 μM azelaic acid, 18 hours
Experimental: Therefore, changes in concentrations of cAMP, IP-one (metabolite of IP3), and calcium, which are second messengers by azelaic acid corresponding to the Olfr544 ligand, in 3T3-L1 adipocytes were measured. Since IP3 has low stability to thereby be easily decomposed to IP-one, an amount of intracellular IP-One (metabolite of IP3) was quantified instead of IP3.
IP-one assay is a method of measuring a concentration of IP3 corresponding to a second messenger formed by phospholipolysis by phospholipase in a GPCR signal transduction process to measure an ability to regulate protein kinase C (PKC) signal transduction. In the present experiment, 1×10^4 3T3-L1 adipocytes were seeded in each well of the 96-well plate and differentiated, and then treated with 50 μM azelaic acid for 18 hours. Then, in order to measure IP3, the concentration of intracellular IP-one (metabolite of IP3, a surrogate marker) of which an error was small was measured using an IP-one ELISA Assay kit (Cisbio, France).

[5] = reported results of a study; formed in the body; cited from earlier work
protein kinase A (PKA) = assay: PKA kinase activity in 3T3-L1 adipocytes; assay type: cell-based, mouse; details: azelaic acid 50 μM, 2 hours
From the text: A representative protein regulating protein activities associated with signal transduction depending on a change in concentration of intracellular cAMP in the tissue cells is protein kinase A (PKA). Under general conditions, since an enzyme active site is blocked by a regulatory domain site of protein, a PKA activity is suppressed, but when the concentration of cAMP is increased, cAMP is bound to a regulatory site of PKA to expose an active site, such that the PKA activity is increased. In the present experiment, a change in PKA activity by azelaic acid was measured. The PKA activity was measured using an Enzo PKA kinase activity kit (Cat. #ADI-EKS-390A, Enzo Life Sciences, Korea).

[6] = tested on: 3T3-L1 adipocytes in which the Olfr544 gene was knocked-down; assay: cAMP, PKA activity and HSL phosphorylation in adipocytes in which Olfr544 gene was knocked-down; assay type: cell-based, mouse; details: Olfr544 shRNA transfected adipocytes treated with azelaic acid for 2 hours
From the text: After the Olfr544 gene was knocked-down in the mouse adipocytes, cAMP assay was confirmed by the method described in Example 4, PKA activity was confirmed by the method described in Example 5, and phosphorylation of HSL protein was confirmed by the method described in Example 6.

normal mice = assay: Energy metabolism by indirect calorimetry in normal mice; assay type: in vivo, mouse; details: 50 mg/kg oral, 6 weeks
From the text: Relative metabolic rates were confirmed by measuring consumption amount of O2 and production amounts of CO2 of an azelaic acid administration group and a control group using indirect calorimetry.

3T3-L1 adipocytes [7] = assay: Intracellular cholesterol concentration (Amplex Red kit) in 3T3-L1 adipocytes; assay type: cell-based, mouse; details: azelaic acid 25 or 50 μM
Experimental: In order to confirm whether or not azelaic acid induces triglyceride hydrolysis in adipocytes by activating a cAMP-PKA-HSL signaling pathway, the adipocytes were directly treated with azelaic acid, and concentrations of intracellular lipids were measured. […] Then, a concentration of triglycerides was measured using a TG assay kit (BioVision, California, U.S.) and a concentration of cholesterol was measured using an Amplex Red cholesterol assay kit (Invitrogen, California, U.S.).

With `O=C(O)CCCCCCCC(=O)O` [azelaic acid, nonanedioic acid] the “phosphorylation of CREB” value (3T3-L1 adipocytes [1]) was “rapidly increased”, the “phosphorylation of HSL” value (3T3-L1 adipocytes [1]) was “rapidly increased” and the “expression of fatty acid oxidation-related genes (PPARa, CTP1, Acox2) upon treatment with azelaic acid” value (OR2K2; HepG2 cells during knock-down of OR2K2) was “did not change”. For the same compound, the “expression of fatty acid oxidation-related genes (PPARa, CTP1, Acox2), knocked-down group compared to control group” value (OR2K2; HepG2 cells, OR2K2 knock-down, upon treatment with azelaic acid) was “statistically significantly decreased”, the body weight [2] was “Significant body weight reduction efficacy” and the “glycerol (product of triglyceride hydrolysis) increased as compared to the control” value (3T3-L1 adipocytes [3]) was 46.7%. The “concentration of IP3 (IP-one)” value (3T3-L1 adipocytes [4]) was “did not affect”, the “concentration of azelaic acid in a human body” value [5] was 10 to 50 µM and the “PKA activity increased as compared to a control” value (protein kinase A (PKA)) was 113.8%. For the same compound, the cAMP-PKA-HSL signaling pathway [6] was “all inactivated”, the “consumption amount of O2” value (normal mice; vs control) was “no large difference” and the fatty acid oxidation (normal mice; vs control) was “increased”. The “respiratory quotient (RQ)” value (normal mice; vs control) was “decreased”, the “total energy expenditure (EE)” value (normal mice; vs control) was “no change” and the “production amount of CO2” value (normal mice; vs control group) was “significantly increased”. For the same compound, the “concentration of intracellular cholesterol” value (3T3-L1 adipocytes [7]) was “no significant change”.
